Values of other authors, collected in patent publication US8440668B2, “Beta-amino heterocyclic dipeptidyl peptidase inhibitors for the treatment of type 2 diabetes” (Merck Sharp & Dohme Corp, priority 2001, dated 2013).

Legend:
rats = details: Transplantation 63, 1495-1500 (1997)
mouse = details: cyclophosphamide-induced neutropenia, WO 99/56753
DP-IV = biological target: T1, DP-IV (Homo sapiens, UniProt P27487)
T1 construct: GRF is rapidly degraded in plasma to GRF[3-44]; from tissue
T1 sequence (P27487 39-766 limits assumed): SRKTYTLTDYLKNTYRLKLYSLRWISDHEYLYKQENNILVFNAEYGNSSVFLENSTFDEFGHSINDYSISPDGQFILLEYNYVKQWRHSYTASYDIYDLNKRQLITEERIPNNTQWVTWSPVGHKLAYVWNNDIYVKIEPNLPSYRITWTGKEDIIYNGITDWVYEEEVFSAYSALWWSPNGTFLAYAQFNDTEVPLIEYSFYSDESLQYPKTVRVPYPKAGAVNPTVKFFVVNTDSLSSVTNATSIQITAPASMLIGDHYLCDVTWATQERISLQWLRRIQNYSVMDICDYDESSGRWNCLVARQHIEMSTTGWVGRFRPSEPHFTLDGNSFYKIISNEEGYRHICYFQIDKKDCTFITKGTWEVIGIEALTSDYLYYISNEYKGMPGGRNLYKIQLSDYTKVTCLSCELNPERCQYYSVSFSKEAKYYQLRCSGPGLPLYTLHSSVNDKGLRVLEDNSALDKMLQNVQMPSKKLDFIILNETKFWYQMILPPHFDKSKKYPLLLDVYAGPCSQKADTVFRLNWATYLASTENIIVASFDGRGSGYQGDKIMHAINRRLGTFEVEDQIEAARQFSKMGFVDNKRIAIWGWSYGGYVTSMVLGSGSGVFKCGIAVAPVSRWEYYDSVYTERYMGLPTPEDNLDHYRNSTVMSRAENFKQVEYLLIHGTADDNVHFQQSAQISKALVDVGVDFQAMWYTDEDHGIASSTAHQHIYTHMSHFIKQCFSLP

## CC(C)N1CCC(c2ccccc2)(c2ccccc2)CC1 [Prodipine, Pro-Pro-diphenyl-phosphonate]
rats
  cardiac allograft survival: double cardiac allograft survival in rats from day 7 to day 14

## CC(C)[C@H](N)C(=O)N1CCC[C@H]1B(O)O [Val-Boro-Pro]
mouse
  hematopoiesis: stimulated hematopoiesis

## diprotin A
DP-IV
  degradation of GRF in plasma to GRF[3-44]: prevented
